Where two headings read alike, the source gives them in different places.
Legend:
[1] = system: Con1 subgenomic HCV replicon (genotype 1b); test: Con1 subgenomic replicon HCV RNA in SgPC2 cells (Northern blot); type: cell-based, hepatitis C virus; details: 24 h; for HCV RNA level / HCV replication in SgPC2 cells: 5 μM acetaldehyde, 5 μM acetate, 0.2% isopropyl alcohol, 2 mM acetone, 25 mM tert-butanol, 5 mM lactate; for potentiation of HCV RNA replication by ethanol, acetaldehyde, isopropyl alcohol, acetone, and acetate: 30 min pretreatment with 5 μM lovastatin, 5 μM fluvastatin, 5 μg/ml TOFA or 5 μg/ml cerulenin
Description: (§1) The genotype 2a HCV constructs, pJFH1 (produces infectious virus particles), replicative-null pJFH1-GND, and subgenomic pSgJFH1-Luc (contains a luciferase reporter gene), are described elsewhere (23, 24). Subgenomic HCV replicons are bicistronic constructs that express only the nonstructural proteins of HCV under the control of encephalocarditis virus IRES; neomycin resistance or firefly luciferase gene is under the control of the HCV IRES (15, 22, 24). These replicons support HCV RNA replication but no virus is formed in cell culture. Huh7 cell clones (SgPC2 cells, Clone B) supporting continuous replication of subgenomic HCV replicon of genotype 1b (Con1 sequence) were also used (17, 22).
(§2) The in vitro transcription, and transfection of HCV RNA, and Huh7 human hepatoma cell culture were performed as previously described (17). For experiments involving stable clones, cells were cultured in medium supplemented with 0.4-0.5 mg/mL G418, and G418 was removed from cell culture medium one day prior to cell treatments, which were performed as described in Results. For the in vitro infectivity assays, 2 ml of the extracellular medium from JFH1 RNA-transfected cells was used to inoculate naive Huh7 or Huh7.5 cells with 3 ml of fresh medium, as described (23, 25). Treatments were initiated 24 hours after infection and the cells were harvested after another 24 or 48 hrs.
(§3) Intracellular RNA extraction and northern blots were carried out, as described (16, 17). DNA probes were prepared from nucleotides (“nt.”) 4128-8273 or 358-2816 of JFH1, generated with ScaI and ApaL I, respectively, or nt. 3669 to 6016 of the Con1 subgenomic replicons. Images were quantified by densitometry, using Optiquant Cyclone 4.00 (Perkin Elmer), and data were normalized by glyceraldehyde 3-phosphate dehydrogenase (GAPDH) mRNA content.

[2] = system: intracellular cholesterol; test: Total intracellular cholesterol content in SgPC2 cells; type: cell-based, human; details: 24 h
Protocol: FIG. 7. […] SgPC2 cells were treated for 24 h with (A and B) 0.2% ethanol, 5 μM acetaldehyde, 0.2% isopropyl alcohol, 2 mM acetone, 5 μM acetate±30 min pretreatment with (A) 5 μM lovastatin, 5 μM fluvastatin, (B) 5 μg/ml TOFA, 5 μg/ml cerulenin, or with (C) 2 mM β-mercaptopropionic acid (β-MPA). Then, HCV RNA levels were monitored by Northern blot and quantified by densitometry (n=3). D, SgPC2 cells, treated for 24 h with ethanol, acetaldehyde, acetone, and acetate±lovastatin, were monitored for cholesterol levels (n=3). Lovastatin was activated, as described, before use (29). *, indicates statistically significant difference for indicated sample sizes (p<0.05)

NADH/NAD+ ratio = test: NADH/NAD+ enzymatic NADH recycling assay; type: cell-based, human; details: for NADH/NAD+ ratio: SgPC2 cells, 0.2% ethanol, 5 μM acetaldehyde, 5 μM acetate, 0.2% isopropyl alcohol, 2 mM acetone, 25 mM tert-butanol; for NADH/NAD+ ratio in ethanol-treated cells: with cyanamide, 4 MP, and DADS, data not shown
JFH1 HCV (genotype 2a) = type: cell-based, hepatitis C virus
[3] = system: Huh7 human hepatoma cells
Protocol: NADH and NAD+ levels were determined by enzymatic NADH recycling assay, using the NAD+/NADH Quantification Kit from Biovision, per manufacturers recommendations with an optional filtration step that used Microcon YM-10 (Millipore). Total ATP content was measured using Somatic Cell ATP Assay Kit from Sigma-Aldrich. The data were normalized by total protein content, determined with BCA assay kit from Pierce.
To examine whether ethanol increased the complete replication of HCV, positive-sense genomic JFH1 RNA was produced by in vitro transcription, using T7 RNA polymerase, and transfected into Huh7 human hepatoma cells. Then, the transfected cells were exposed to 0-1.0% (v/v; 0-172 mM) ethanol once daily with a change of medium each day for 48 hrs. Then, the cells and the cell culture medium were harvested and analyzed for intracellular and RNase A-resistant extracellular HCV RNA's by a combination of Northern blots and qRT-PCR.

[4] = system: SgJFH1-Luc subgenomic HCV replicon (genotype 2a); type: cell-based, hepatitis C virus
Description: as §1
After various treatments, SgJFH1 Luc RNA-transfected cells were lysed with 1× Reporter Lysis Buffer, and the luciferase activity was determined using Luciferase Reporter Assay Kit (Promega Corp.) (24). Luciferase activities were normalized by total protein content, determined with bicinchoninic acid (BCA) assay kit from Pierce.
To test whether the JFH1 RNA replication was also affected by ethanol, Huh7 cells were transfected with JFH1 SgJFH1-Luc RNA and exposed the cells to ethanol for 48 hours. Then, HCV replication was monitored by measuring the firefly luciferase activity (24).

HCV = details: references 53, 54; cited from earlier work
JFH1 virus = test: HCV RNA in naive Huh7 or Huh7.5 cells inoculated with JFH1 virus-containing medium; type: cell-based, hepatitis C virus
Protocol: as §2
The total intracellular RNA was obtained from cells using Trizol (Invitrogen). To obtain extracellular HCV RNA, cell culture medium samples were first treated with RNase A (100 μg/ml) for 30 min at room temperature, then RNA was extracted using Trizol LS and glycogen as a carrier. HCV RNA was quantified by qRT-PCR as described (17, 23). For JFH1, the primer sequences were 5′ […] 3′ (nt 146 to 164; forward, SEQ ID NO.: 1), and 5′ […] 3′ (nt 277 to 295; reverse, SEQ ID NO.: 2), and the sequence of the fluorogenic probe, labeled with 6-FAM and TAMRA (Biosearch Technologies, Inc.), was 5′ […] 3′ (nt 168 to 188, SEQ ID NO.: 3). The primer and probe sequences for qRT-PCR analysis of Con1 RNA's were described previously (17). Standard curves were generated using in vitro-transcribed HCV RNA's. Intracellular HCV RNA levels were normalized by 18 S rRNA or GAPDH mRNA.

[5] = system: Con1 HCV subgenomic replicon; test: Con1 subgenomic replicon HCV RNA in Clone B cells; type: cell-based, hepatitis C virus; details: 24 hrs, response compared with SgPC2 cells
Description: as §1, §3

[6] = BSO with 2 mM GSH or GSH ester, 24 hrs
[7] = 0.2% ethanol ± 0.1 mM 4 MP plus 25 μM DADS
[8] = acetaldehyde at physiologically relevant concentrations, 24 hrs

CC(=O)O [acetate]
HCV RNA level / HCV replication in SgPC2 cells [1]: increased
total intracellular cholesterol content [2]: increased
NADH/NAD+ ratio (NADH/NAD+ ratio; 3 h): increases

N[C@@H](CCC(=O)N[C@@H](CS)C(=O)NCC(=O)O)C(=O)O [GSH, glutathione]
restoration of intracellular HCV RNA in BSO-treated cells (JFH1 HCV (genotype 2a); [6]): could not restore

OO [H2O2, Hydrogen peroxide]
JFH1 RNA levels (JFH1 HCV (genotype 2a); 25, 50, and 100 μM bolus H2O2, 24 hrs): decreased
cytotoxicity in JFH1 cells ([3]; 100 μM H2O2): some cytotoxicity
cytotoxicity in JFH1 cells ([3]; 25 and 50 μM H2O2): clearly within the subtoxic range

O=C(O)CCS [β-mercaptopropionic acid]
increase in HCV replication ([1]; 2 mM β-mercaptopropionic acid, SgPC2 cells): 15.2±1.7 fold

CC(C)(C)O [tert-butanol]
HCV RNA level / HCV replication in SgPC2 cells [1]: did not elevate
NADH/NAD+ ratio (NADH/NAD+ ratio; 3 h): did not elevate

glucose oxidase [GO]
decrease of intracellular JFH1 RNA (JFH1 HCV (genotype 2a); 0.25 mU/mL GO + glucose, 24 hrs): 30±8%
effect on the suppression of HCV RNA by BSO (JFH1 HCV (genotype 2a); GO + glucose after 16 hr pre-treatment with 20 μM BSO, 24 hrs): exacerbated the suppression
effect on the suppression of subgenomic JFH1 RNA replication by BSO [4]: exacerbated the suppression

N#CN [cyanamide]
potentiation of HCV replication by ethanol ([1]; 0.2% ethanol ± 0.1 mM cyanamide): suppressed
NADH/NAD+ ratio in ethanol-treated cells (NADH/NAD+ ratio): decreases

CC(O)C(=O)O (centres unmarked) [lactate]
HCV RNA level / HCV replication in SgPC2 cells [1]: little to no effect
total intracellular cholesterol content [2]: no significant effect
NADH levels (NADH/NAD+ ratio; 5 mM lactate, 3 h): 235.9±11.9 % of the control level

CC[C@H](C)C(=O)O[C@H]1C[C@@H](C)C=C2C=C[C@H](C)[C@H](CC[C@@H]3C[C@@H](O)CC(=O)O3)[C@H]21 [lovastatin, Lovastatin]
potentiation of HCV RNA replication by ethanol, acetaldehyde, isopropyl alcohol, acetone, and acetate ([1]; SgPC2 cells): almost completely inhibited
increase of intracellular cholesterol content by ethanol, acetaldehyde, acetone, and acetate ([2]; ± lovastatin): attenuated
basal level of HCV replication (HCV): suppress

CCOC(=O)CNC(=O)[C@H](CS)NC(=O)CC[C@H](N)C(=O)O [GSH ethyl ester]
restoration of extracellular HCV RNA in BSO-treated cells (JFH1 HCV (genotype 2a); [6]): partially restored
restoration of intracellular HCV RNA in BSO-treated cells (JFH1 HCV (genotype 2a); [6]): partially restored

Cc1cn[nH]c1 [4 MP, 4-methylpyrazole]
potentiation of HCV replication by ethanol [1, 7]: suppressed
NADH/NAD+ ratio in ethanol-treated cells (NADH/NAD+ ratio): decreases

CC(C)=O [acetone]
HCV RNA level / HCV replication in SgPC2 cells [1]: increased
total intracellular cholesterol content [2]: increased
NADH/NAD+ ratio (NADH/NAD+ ratio; 3 h): increases

CCCCCCCCCCCCCCOc1ccc(C(=O)O)o1 [TOFA, 5-(Tetradecyloxy)-2-furoic acid]
potentiation of HCV RNA replication by ethanol, acetaldehyde, isopropyl alcohol, acetone, and acetate ([1]; SgPC2 cells): almost completely inhibited
basal level of HCV replication (HCV): suppress

C=CCSSCC=C [DADS]
potentiation of HCV replication by ethanol [1, 7]: suppressed
NADH/NAD+ ratio in ethanol-treated cells (NADH/NAD+ ratio): decreases

C/C=C/C/C=C/CCC(=O)[C@H]1O[C@H]1C(N)=O [cerulenin]
potentiation of HCV RNA replication by ethanol, acetaldehyde, isopropyl alcohol, acetone, and acetate ([1]; SgPC2 cells): almost completely inhibited
basal level of HCV replication (HCV): suppress

CC(C)O [isopropyl alcohol]
HCV RNA level / HCV replication in SgPC2 cells [1]: increased
NADH/NAD+ ratio (NADH/NAD+ ratio; 3 h): increases

CC=O [acetaldehyde]
HCV RNA content in virus-producing JFH1 cells (JFH1 HCV (genotype 2a); [8]): significantly increased
HCV replication in RIG-1-defective Huh7.5 cells (JFH1 virus; FIG. 5, also data not shown): increase
HCV replication in naive cells infected with virus-containing medium (JFH1 virus; Huh7.5 cells, acetaldehyde 24 hrs): significant increases
HCV RNA level / HCV replication in SgPC2 cells [1]: elevated
total intracellular cholesterol content [2]: increased
HCV RNA in Clone B cells [5]: responded similarly
NADH/NAD+ ratio (NADH/NAD+ ratio; 3 h): increases
HCV RNA content in non-virus producing JFH1 cells [4, 8]: significantly increased

— patent US20100226888A1, “Ethanol Enhances the Complete Replication of Hepatitis C Virus: the Role of Acetaldehyde” (priority 2009, published 2010)
